Our source for the Activity values is ChEMBL document CHEMBL1212789, “Activity and toxicity of farnesol towards Candida albicans are dependent on growth conditions” (Antimicrob Agents Chemother, 2010).

Holding throughout (type): functional, organism-based
Assay [1] relates to Candida albicans. The assay is described as follows: Antifungal activity against log phase culture of Candida albicans in GPP medium at 300 uM after 4 hrs by methylene blue assay.
Assay [2] deals with Candida albicans. The experiment in a line: Antifungal activity against stationary phase culture of Candida albicans in YPD medium at 10 to 300 uM at 30 degC after 24 hrs by methylene blue assay.
The subject of assay [3] is Candida albicans. The experiment in a line: Antifungal activity against exponential phase culture of Candida albicans in YPD medium at 10 to 300 uM at 25 degC after 24 hrs by methylene blue assay.
The test system of assay [4] is Candida albicans. The assay is described as follows: Antifungal activity against stationary phase culture of Candida albicans in GPP medium at 10 to 300 uM at 37 degC after 24 hrs by methylene blue assay.
Assay [5] concerns Candida albicans. The experiment in a line: Antifungal activity against exponential phase culture of Candida albicans in GPP medium at 10 to 300 uM at 30 degC after 24 hrs by methylene blue assay.
For assay [6], the system named is Candida albicans. The assay is described as follows: Antifungal activity against exponential phase culture of Candida albicans in GPP medium at 10 to 300 uM at 25 degC after 24 hrs by methylene blue assay.
Assay [7] deals with Candida albicans. The assay is described as follows: Antifungal activity against Candida albicans in YPD medium up to 300 uM after 24 hrs by methylene blue assay.
For assay [8], the system named is Candida albicans. The experiment in a line: Antifungal activity against exponential phase culture of Candida albicans in GPP medium at 40 uM after 24 hrs by methylene blue assay.
Assay [9] has as its system Candida albicans. The assay is described as follows: Antifungal activity against exponential phase culture of Candida albicans in YPD medium at 10 to 300 uM at 30 degC after 24 hrs by methylene blue assay.
Assay [10] relates to Candida albicans. The experiment in a line: Antifungal activity against stationary phase culture of Candida albicans in GPP medium at 10 to 300 uM at 30 degC after 24 hrs by methylene blue assay.
Assay [11] concerns Candida albicans. The experiment in a line: Antifungal activity against stationary phase culture of Candida albicans in GPP medium up to 300 uM after 24 hrs by methylene blue assay.
For assay [12], the system named is Candida albicans. The experiment in a line: Antifungal activity against stationary phase culture of Candida albicans in GPP medium at 10 to 300 uM at 25 degC after 24 hrs by methylene blue assay.
In assay [13] the test system is Candida albicans. The assay is described as follows: Antifungal activity against stationary phase culture of Candida albicans in YPD medium at 10 to 300 uM at 25 degC after 24 hrs by methylene blue assay.
The test system of assay [14] is Candida albicans. The experiment in a line: Antifungal activity against log phase culture of Candida albicans in GPP medium at 100 uM after 1 hr by methylene blue assay.
The test system of assay [15] is Candida albicans. The assay is described as follows: Antifungal activity against log phase culture of Candida albicans at 10 to 300 uM treated directly to growing cultures measured after 4 hrs by methylene blue assay.
Assay [16] relates to Candida albicans. The experiment in a line: Antifungal activity against log phase culture of Candida albicans in GPP medium at 40 uM after 24 hrs by methylene blue assay.
The subject of assay [17] is Candida albicans. The experiment in a line: Antifungal activity against Candida albicans in YPD medium at => 300 uM after 24 hrs by methylene blue assay.
For assay [18], the system named is Candida albicans. The assay is described as follows: Antifungal activity against exponential phase culture of Candida albicans in YPD medium at 10 to 300 uM at 37 degC after 24 hrs by methylene blue assay.
Assay [19] relates to Candida albicans. The experiment in a line: Antifungal activity against exponential phase culture of Candida albicans at 10 to 300 uM treated directly to growing cultures measured after 4 hrs by methylene blue assay.
Assay [20] concerns Candida albicans. The assay is described as follows: Antifungal activity against stationary phase culture of Candida albicans in YPD medium at 10 to 300 uM at 37 degC after 24 hrs by methylene blue assay.
Assay [21] relates to Candida albicans. The experiment in a line: Antifungal activity against exponential phase culture of Candida albicans in GPP medium at 10 to 300 uM at 37 degC after 24 hrs by methylene blue assay.

The source made the active and inactive calls. The rule behind the calls is not given here.

For `CC(C)=CCC/C(C)=C/CC/C(C)=C/CO`, the outcome in the assay with Candida albicans [1], with Candida albicans [8], in the assay with Candida albicans [14], in the assay with Candida albicans [15], with Candida albicans [16] and with Candida albicans [17] was Active. Also, the result in the assay on Candida albicans [19] was Active. In addition, the result in the assay on Candida albicans [2], with Candida albicans [3], in the assay on Candida albicans [4], in the assay with Candida albicans [5], with Candida albicans [6] and in the assay on Candida albicans [7] was inactive. The outcome in the assay with Candida albicans [9], in the assay with Candida albicans [10], in the assay on Candida albicans [11], with Candida albicans [12], with Candida albicans [13] and in the assay with Candida albicans [18] was inactive. For the same compound, the result with Candida albicans [20] and in the assay with Candida albicans [21] was inactive.
